Results taken from paper PMC11477621, “Design, Synthesis, and Biological Evaluation of HDAC Inhibitors Containing Natural Product-Inspired N-Linked 2-Acetylpyrrole Cap” (Molecules, 2024).

Assays:
HDAC3 = HDAC3 (Homo sapiens, UniProt O15379); assay: HDAC inhibition assay (HTRF), HDAC3;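 also: HTRF detection with streptavidin-XL665 and a Eu cryptate-labelled antibody against unmodified H3K9, two independent runs with duplicate wells at each concentration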
Method: (§2) Then, SA-XL665 (#610SAXLG, Cisbio, Bedford, MA, USA) and anti-H3K9me0-Eu(K) (#61KB0KAD, Cisbio, USA) were added. […] The IC50 value of the compounds was calculated using GraphPad 7.0 software. Each set of experiments was independently repeated twice, with two replicate wells per concentration each time.

HDAC6 = biological target: T1, HDAC6 (Homo sapiens, UniProt Q9UBN7); assay: HDAC inhibition assay (HTRF), HDAC6; assay type: biochemical; conditions: for IC50: read-out: IC50 ± SD, HDAC6
T1 construct: purchased BPS #50006
T1 sequence (Q9UBN7 1-1215): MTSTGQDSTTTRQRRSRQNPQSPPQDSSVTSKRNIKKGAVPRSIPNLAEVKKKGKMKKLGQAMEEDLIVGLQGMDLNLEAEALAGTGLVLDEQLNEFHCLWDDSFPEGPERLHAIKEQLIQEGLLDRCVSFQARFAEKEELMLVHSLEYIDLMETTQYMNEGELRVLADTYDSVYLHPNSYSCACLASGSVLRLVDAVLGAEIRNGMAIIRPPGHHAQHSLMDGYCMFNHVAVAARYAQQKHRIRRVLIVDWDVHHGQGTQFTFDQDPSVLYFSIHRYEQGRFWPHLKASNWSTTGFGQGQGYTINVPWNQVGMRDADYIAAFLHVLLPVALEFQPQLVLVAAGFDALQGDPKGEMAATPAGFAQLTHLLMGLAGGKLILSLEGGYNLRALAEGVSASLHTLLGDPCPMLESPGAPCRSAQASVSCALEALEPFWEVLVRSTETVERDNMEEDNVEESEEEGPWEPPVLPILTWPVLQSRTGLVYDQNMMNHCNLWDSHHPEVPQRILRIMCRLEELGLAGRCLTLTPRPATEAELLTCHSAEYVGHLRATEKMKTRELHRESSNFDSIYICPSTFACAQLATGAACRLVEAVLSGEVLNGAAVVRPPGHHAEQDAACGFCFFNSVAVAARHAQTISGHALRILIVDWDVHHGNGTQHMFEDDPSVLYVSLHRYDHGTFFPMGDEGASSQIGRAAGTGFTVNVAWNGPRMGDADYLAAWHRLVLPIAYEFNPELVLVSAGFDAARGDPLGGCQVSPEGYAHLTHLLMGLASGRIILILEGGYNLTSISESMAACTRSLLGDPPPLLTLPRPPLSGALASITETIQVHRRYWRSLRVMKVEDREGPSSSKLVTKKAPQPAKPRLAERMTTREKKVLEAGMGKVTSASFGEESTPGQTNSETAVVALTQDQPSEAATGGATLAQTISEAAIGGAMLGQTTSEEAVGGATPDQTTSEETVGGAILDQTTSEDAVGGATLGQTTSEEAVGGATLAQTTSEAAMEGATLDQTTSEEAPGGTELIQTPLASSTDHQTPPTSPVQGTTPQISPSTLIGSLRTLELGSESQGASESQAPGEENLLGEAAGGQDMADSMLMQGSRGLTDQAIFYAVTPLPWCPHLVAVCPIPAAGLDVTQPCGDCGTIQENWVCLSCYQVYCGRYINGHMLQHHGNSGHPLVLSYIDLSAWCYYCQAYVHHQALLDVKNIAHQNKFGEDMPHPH
Method: as §2

[1] = tested on: RPMI-8226 (human myeloma cell line); assay: CCK8 cell viability assay, RPMI-8226; assay type: cell-based; conditions: 72 h, read-out: Proliferation inhibition IC50 ± SD, RPMI-8226
Method: (§1) The CCK8 (#AC11L054, Life ilab, Shanghai, China) method was used to detect the cells’ proliferation. Cells were seeded into a 96-well culture plate at an appropriate density. […] IC50 values were estimated using the four-parameter method. Each set of experiments was repeated independently three times with three replicate wells per concentration each time.

[2] = tested on: HCT-116 (human colon cancer cell line); assay: CCK8 cell viability assay, HCT-116; assay type: cell-based; conditions: 72 h, read-out: Proliferation inhibition IC50 ± SD, HCT-116
Method: as §1

HDAC1 = biological target: T2, HDAC1 (Homo sapiens, UniProt Q13547); assay: HDAC inhibition assay (HTRF), HDAC1; assay type: biochemical; conditions: for IC50: read-out: IC50 ± SD, HDAC1;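 as to all read-outs here: HTRF detection with streptavidin-XL665 plus Eu(K)-labelled anti-H3K9me0 antibody, two independent runs with duplicate wells per concentration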
T2 construct: purchased BPS #50001
T2 sequence (Q13547 whole entry): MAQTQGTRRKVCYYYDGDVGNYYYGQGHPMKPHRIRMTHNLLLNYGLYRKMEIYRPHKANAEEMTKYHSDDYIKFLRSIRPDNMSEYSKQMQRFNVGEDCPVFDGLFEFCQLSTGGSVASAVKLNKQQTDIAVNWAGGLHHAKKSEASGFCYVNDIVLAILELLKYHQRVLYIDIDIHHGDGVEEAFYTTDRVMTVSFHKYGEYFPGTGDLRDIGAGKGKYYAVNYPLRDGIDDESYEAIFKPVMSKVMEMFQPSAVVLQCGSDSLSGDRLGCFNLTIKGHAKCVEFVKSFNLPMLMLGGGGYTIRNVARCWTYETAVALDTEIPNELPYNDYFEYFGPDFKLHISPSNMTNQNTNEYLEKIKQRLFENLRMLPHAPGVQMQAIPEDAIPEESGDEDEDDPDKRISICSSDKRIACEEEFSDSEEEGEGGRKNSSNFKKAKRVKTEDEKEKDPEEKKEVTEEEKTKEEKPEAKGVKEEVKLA
Method: as §2

[3] = tested on: HL-60 (human leukemia cell line); assay: CCK8 cell viability assay, HL-60; assay type: cell-based; conditions: 72 h, read-out: Proliferation inhibition IC50 ± SD, HL-60
Method: as §1

[4] = tested on: Ac-tubulin in RPMI-8226 cells; assay: Western blot of Ac-tubulin; assay type: cell-based, human; conditions: tested concentrations, 24 h
Method: RPMI-8226 cells were seeded in six-well plates and treated with compounds for 24 h. Cells were lysed with 1× SDS loading buffer (50 mM Tris pH 6.8, 100 mM DTT, 2% SDS, 0.1% bromophenol blue, 10% glycerol), and then centrifuged at 12,000 rpm for 5 min at 4 °C. Cell extracts were probed with antibodies Ac-Tubulin (#5335T, CST, Kansas City, MO, USA), α-Tubulin (#2144S, CST, Kansas City, MO, USA), AcH3 (#ab39139, active motif, Carlsbad, CA, USA), Histone H3 (#17168-1-AP, Proteintech, Chicago, IL, USA), GAPDH (#60004-1-1g, Proteintech, Chicago, IL, USA), Goat Anti-Mouse IgG, H&L Chain Specific Peroxidase Conjugate (#401215, Calbiochem, Darmstadt, Germany), Goat Anti-Rabbit IgG, or H&L Chain Specific Peroxidase Conjugate (#401353, Calbiochem, Germany), then detected using Bio-RAD power pal Basic (#041BR66615, BioRad Laboratories, Hercules, CA, USA), Bio-RAD Mini-PROTEAN Tetrade System (#IEC/EN 61010-1, BioRad Laboratories, Hercules, CA, USA), or Bio-RAD Chemi Touch Imagin (BioRad Laboratories, Hercules, CA, USA).

[5] = read-out: (%) Inhibition of HDAC3

Chain of HDAC3 (O15379 whole entry): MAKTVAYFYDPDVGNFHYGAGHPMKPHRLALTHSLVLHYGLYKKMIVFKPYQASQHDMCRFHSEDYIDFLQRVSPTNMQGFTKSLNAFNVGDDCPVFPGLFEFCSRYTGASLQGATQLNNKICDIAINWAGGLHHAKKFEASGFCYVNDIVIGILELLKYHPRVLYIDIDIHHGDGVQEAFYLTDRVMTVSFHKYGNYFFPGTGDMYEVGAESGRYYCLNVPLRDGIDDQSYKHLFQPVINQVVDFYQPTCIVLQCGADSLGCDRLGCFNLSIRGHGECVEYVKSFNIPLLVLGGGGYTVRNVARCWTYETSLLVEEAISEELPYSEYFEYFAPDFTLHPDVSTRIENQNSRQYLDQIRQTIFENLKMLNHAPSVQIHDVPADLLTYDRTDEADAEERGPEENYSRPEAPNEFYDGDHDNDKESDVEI
Chain of HDAC3 (Q9Y618 395-489 partner limits assumed): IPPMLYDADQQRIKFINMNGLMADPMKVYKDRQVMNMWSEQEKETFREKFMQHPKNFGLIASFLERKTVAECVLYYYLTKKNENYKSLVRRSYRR

| SMILES | IC50 (HDAC3) | IC50 (HDAC6) | IC50 [1] | IC50 [2] | IC50 (HDAC1) | IC50 [3] | inhibition at 1 µM (HDAC3; [5]) | inhibition at 1 µM (HDAC6) | inhibition at 1 µM (HDAC1) | inhibition at 10 µM (HDAC3; [5]) | inhibition at 10 µM (HDAC6; at 10 μM) | inhibition at 10 µM (HDAC1; at 10 μM) | Ac-α-tubulin protein expression [4] |
| --- | --- | --- | --- | --- | --- | --- | --- | --- | --- | --- | --- | --- | --- |
| CCC(=O)c1cccn1CCCCCCC(=O)NO [Compound 5b, N-hydroxy-7-(2-propionyl-1H-pyrrol-1-yl)heptanamide] | 0.0582 ± 0.00464 µM | 0.00767 ± 0.00106 µM | 19.9 ± 7.71 µM | 23 ± 7.03 µM | 0.0542 ± 0.00874 µM | 12.9 ± 0.75 µM |  |  |  |  |  |  |  |
| CC(=O)c1cccn1CCCC(=O)NO [Compound 3a, 4-(2-Acetyl-1H-pyrrol-1-yl)-N-hydroxybutanamide] | > 10 µM | > 10 µM |  |  | > 10 µM |  |  |  |  |  |  |  |  |
| CC(=O)c1cccn1CCCCCC(=O)NO [Compound 3c, 6-(2-Acetyl-1H-pyrrol-1-yl)-N-hydroxyhexanamide] | 0.138 ± 0.0186 µM | 0.0823 ± 0.0152 µM |  |  | 0.118 ± 0.0308 µM |  |  |  |  |  |  |  |  |
| N#Cc1ccc2c(ccn2CCCCCCC(=O)NO)c1 [Compound 5l, 7-(5-Cyano-1H-indol-1-yl)-N-hydroxyheptanamide] | 0.00118 ± 6e-05 µM | 0.00231 ± 0.00034 µM | > 30 µM | > 30 µM | 0.00242 ± 0.00036 µM | > 30 µM |  |  |  |  |  |  |  |
| Cc1ccc2c(ccn2CCCCCCC(=O)NO)c1 [Compound 5g, N-hydroxy-7-(5-methyl-1H-indol-1-yl)heptanamide] |  |  | > 30 µM | > 30 µM |  | > 30 µM | 93.5% | 91.5% | 96.1% |  |  |  |  |
| CC(=O)c1cccn1CCc1ccc(C(=O)NO)cc1 [Compound 11, 4-(2-(2-Acetyl-1H-pyrrol-1-yl)ethyl)-N-hydroxybenzamide] |  |  | 11.7 ± 1.75 µM | 17.1 ± 8.69 µM |  | 28 ± 0.56 µM |  |  |  | 79.9% | 89.5% | 77.6% |  |
| O=C(CCCCCCn1cccc1C(=O)c1ccccc1)NO [Compound 5e, 7-(2-Benzoyl-1H-pyrrol-1-yl)-N-hydroxyheptanamide] | 0.00308 ± 0.00097 µM | 0.00974 ± 0.00637 µM | 17.9 ± 6.51 µM | 19.8 ± 8.32 µM | 0.0137 ± 0.00439 µM | 7.5 ± 1.55 µM |  |  |  |  |  |  |  |
| CC(=O)c1cccn1CCCCCCCC(=O)NO [Compound 3e, 8-(2-Acetyl-1H-pyrrol-1-yl)-N-hydroxyoctanamide] | 0.085 ± 0.00121 µM | 0.0155 ± 0.0029 µM |  |  | 0.0824 ± 0.0312 µM |  |  |  |  |  |  |  |  |
| CC(=O)c1cccn1CCCCC(=O)NO [Compound 3b, 5-(2-Acetyl-1H-pyrrol-1-yl)-N-hydroxypentanamide] | > 10 µM | > 10 µM |  |  | 0.426 ± 0.0138 µM |  |  |  |  |  |  |  |  |
| COC(=O)c1cccn1CCCCCCC(=O)NO [Compound 5d, Methyl 1-(7-(hydroxyamino)-7-oxoheptyl)-1H-pyrrole-2-carboxylate] | 0.0495 ± 0.00292 µM | 0.0112 ± 0.00476 µM | > 30 µM | > 30 µM | 0.052 ± 0.0219 µM | 21.8 ± 10.7 µM |  |  |  |  |  |  |  |
| CC(=O)c1cccn1Cc1cn(CCc2ccc(C(=O)Nc3cc(F)c(F)cc3N)cc2)nn1 [Compound 19d, 4-(2-(4-((2-Acetyl-1H-pyrrol-1-yl)methyl)-1H-1,2,3-triazol-1-yl)ethyl)-N-(2-amino-4,5-difluorophenyl)benzamide] | > 10 µM | > 10 µM |  |  | > 10 µM |  |  |  |  |  |  |  |  |
| O=C(CCCCCCn1ccc2ccc(F)cc21)NO [Compound 5h, 7-(6-Fluoro-1H-indol-1-yl)-N-hydroxyheptanamide] |  |  | > 30 µM | > 30 µM |  | > 30 µM | 93.2% | 92.4% | 96.5% |  |  |  |  |
| CC(=O)c1cccn1CCCCCCC(=O)NO [Compound 3d, 7-(2-Acetyl-1H-pyrrol-1-yl)-N-hydroxyheptanamide] | 0.04553 ± 0.00023 µM | 0.0142 ± 0.00124 µM | > 30 µM | > 30 µM | 0.0519 ± 0.00673 µM | > 30 µM |  |  |  |  |  |  |  |
| O=C(CCCCCCn1ccc2cc(Cl)ccc21)NO [Compound 5j, 7-(5-Chloro-1H-indol-1-yl)-N-hydroxyheptanamide] |  |  | > 30 µM | > 30 µM |  | > 30 µM | 93.3% | 92.3% | 96.2% |  |  |  |  |
| CC(=O)c1cccn1Cc1cn(CCc2ccc(C(=O)Nc3ccc(Cl)cc3N)cc2)nn1 [Compound 19c, 4-(2-(4-((2-Acetyl-1H-pyrrol-1-yl)methyl)-1H-1,2,3-triazol-1-yl)ethyl)-N-(2-amino-4-chlorophenyl)benzamide] | > 10 µM | > 10 µM |  |  | > 10 µM |  |  |  |  |  |  |  |  |
| O=C(CCCCCCn1ccc2ccccc21)NO [Compound 5f, N-hydroxy-7-(1H-indol-1-yl)heptanamide] |  |  | > 30 µM | > 30 µM |  | > 30 µM | 94.4% | 92.6% | 96.8% |  |  |  |  |
| O=C(CCCCCCn1cccc1)NO [Compound 5a, N-hydroxy-7-(1H-pyrrol-1-yl)heptanamide] | 0.129 ± 0.0516 µM | 0.0164 ± 0.00631 µM | > 30 µM | 26.4 ± 4.1 µM | 0.101 ± 0.0257 µM | 19.8 ± 1.88 µM |  |  |  |  |  |  |  |
| Nc1ccccc1NC(=O)c1ccc(CNC(=O)OCc2cccnc2)cc1 [MS-275, entinostat, reference compound] |  |  |  |  |  |  |  |  |  |  |  |  | no discernible effect |
| Nc1cc(F)ccc1NC(=O)c1ccc(CNC(=O)/C=C/c2cccnc2)cc1 [Chidamide, reference compound] |  |  | 10.2 ± 1.02 µM | 4.67 ± 0.53 µM |  | 0.5 ± 0.08 µM |  |  |  |  |  |  | no discernible effect |
| CC(=O)c1cccn1Cc1cn(CCc2ccc(C(=O)Nc3ccc(F)cc3N)cc2)nn1 [Compound 19b, 4-(2-(4-((2-Acetyl-1H-pyrrol-1-yl)methyl)-1H-1,2,3-triazol-1-yl)ethyl)-N-(2-amino-4-fluorophenyl)benzamide] | > 10 µM | > 10 µM |  |  | > 10 µM |  |  |  |  |  |  |  |  |
| O=C(CCCCCCn1ccc2cc(F)ccc21)NO [Compound 5i, 7-(5-Fluoro-1H-indol-1-yl)-N-hydroxyheptanamide] | 0.00182 ± 0.00078 µM | ≤ 0.0017 µM | > 30 µM | > 30 µM | 0.00448 ± 0.00243 µM | > 30 µM |  |  |  |  |  |  |  |
| COc1ccc(NC(=O)c2ccc(CCn3cc(Cn4cccc4C(C)=O)nn3)cc2)c(N)c1 [Compound 19e, 4-(2-(4-((2-Acetyl-1H-pyrrol-1-yl)methyl)-1H-1,2,3-triazol-1-yl)ethyl)-N-(2-amino-4-methoxyphenyl)benzamide] | > 10 µM | > 10 µM |  |  | > 10 µM |  |  |  |  |  |  |  |  |
| O=C(CCCCCCn1ccc2cc(Br)ccc21)NO [Compound 5k, 7-(5-Bromo-1H-indol-1-yl)-N-hydroxyheptanamide] |  |  | > 30 µM | > 30 µM |  | > 30 µM | 92.2% | 90.3% | 96.2% |  |  |  |  |
